Laboratory results as given in patent US6414001B2, “Ether and amide compounds preparation thereof composition containing same and use thereof as antidiadetics” (Kotobuki Pharmaceutical Co. Ltd., priority 2000, dated 2002).

Tests used:
[1] = tested on: db/db mice; assay: Hypoglycemic activity in mice; assay type: in vivo; conditions: for inhibition in vivo at 30 mg/kg: 30 mg/kg once a day for four consecutive days; for inhibition in vivo at 3 mg/kg: 3 mg/kg once a day for four consecutive days
Method: Hypoglycemic Activity in Mice
Test compounds were suspended in 0.5% Methyl cellulose solution and administered (p.o.) to db/db mice (obtained from Nihon Clea) at a range of 3-30 mg/kg once a day for four consecutive days. Troglitazone (300 mg/kg) was also administrated for control.

[2] = Mus musculus, po, 10 mg/kg once a day for four consecutive days, suspended in 0.5% methyl cellulose
[3] = Mus musculus, po, suspended in 0.5% methyl cellulose

Row | melting point | Compound | inhibition in vivo at 10 mg/kg [1, 2] | other results
1 | 196 to 198 °C | Cc1oc(-c2ccccc2)nc1CCOc1ccc(NC(=O)C(=O)O)cc1 [Compound 8, 2-[4-(2-(5-Methyl-2-phenyl-1,3-oxazole-4-yl)ethoxy)phenyl]amino-2-oxo-acetic acid] | 26% | 
2 | 133 to 134 °C | COC(=O)c1ccc(OCCc2nc(-c3ccccc3)oc2C)cc1O [Compound 25, 2-Hydroxy-4-[2-(5-methyl-2-phenyl-1,3-oxazole-4-yl)ethoxy]benzoic acid methyl ester] |  | 
3 | 113 to 115 °C | Cc1oc(-c2ccccc2)nc1CCOc1ccc(CNS(=O)(=O)C(F)(F)F)cc1 [Compound 9, 2-[4-(2-(5-Methyl-2-phenyl-1,3-oxazole-4-yl)ethoxy)benzyl]trifluoromethylsulfonamide] | 24% | 
4 |  | CCOc1cc(OCCc2nc(-c3ccccc3)oc2C)ccc1C(=O)O [Compound 31, 2-Ethoxy-4-[2-(5-methyl-2-phenyl-1,3-oxazole-4-yl)ethoxy]benzoic acid] |  | inhibition in vivo at 30 mg/kg [1, 3]: 19%
5 |  | Cc1oc(-c2ccccc2)nc1CC(=O)Nc1ccc(C(=O)O)c(O)c1 [Compound 52] |  | inhibition in vivo at 30 mg/kg [1, 3]: 10.5%
6 |  | Cc1oc(-c2ccc(O)c(C(C)(C)C)c2)nc1CCOc1ccc(NS(=O)(=O)C(F)(F)F)cc1 [Compound 70] |  | inhibition in vivo at 30 mg/kg [1, 3]: 51%
7 |  | 4-[2-(5-Methyl-2-phenyl-1,3-oxazole-4-yl)ethoxy]benzene trifluoromethyl sulfonamide [Compound 2] |  | Hypoglycemic activity (%) ([1]; p.o., 10 mg/kg once a day for four consecutive days, suspended in 0.5% methyl cellulose): 49.0%
8 |  | Cc1oc(-c2ccc(F)cc2)nc1CCOc1ccc(NS(=O)(=O)C(F)(F)F)cc1 [Compound 59] |  | inhibition in vivo at 3 mg/kg [1, 3]: 18.4%
9 |  | CN(CCOc1ccc(NS(=O)(=O)C(F)(F)F)cc1)c1ccccn1 [Compound 11, 4-[2-(N-Methyl-N-2-pyridyl)aminoethoxy]benzene trifluoromethanesulfonamide] | 15.4% | 
10 | 76 to 78 °C | CCc1ccc(CCOc2ccc(NS(=O)(=O)C(F)(F)F)cc2)nc1 [Compound 10, 4-[2-(5-Ethylpyridine-2-yl)ethoxy]benzene trifluoromethylsulfonamide] | 32.4% | 
11 |  | Cc1oc(-c2ccccc2)nc1CCOc1ccc(NS(=O)(=O)C(F)(F)F)c(O)c1 [Compound 42] | 29.6% | 
12 |  | COc1ccc(-c2nc(CCOc3ccc(NS(=O)(=O)C(F)(F)F)cc3)c(C)o2)cc1 [Compound 18] | 34.7% | 
13 | 147 to 149 °C | Cc1oc(-c2ccccc2)nc1CC(=O)Nc1ccc(NS(=O)(=O)C(F)(F)F)cc1 [Compound 48] |  | inhibition in vivo at 30 mg/kg [1, 3]: 65.4%
14 | 133 to 135 °C | CCOc1cc(OCCc2nc(-c3ccccc3)oc2C)ccc1NS(=O)(=O)C(F)(F)F [Compound 40] |  | inhibition in vivo at 30 mg/kg [1, 3]: 53.4%
15 | 167 to 168 °C | Cc1oc(-c2ccc(OCC(=O)O)cc2)nc1CCOc1ccc(NS(=O)(=O)C(F)(F)F)cc1 [Compound 67] |  | inhibition in vivo at 3 mg/kg [1, 3]: 33.1%
16 |  | Cc1oc(-c2cc(C(C)(C)C)c(O)c(C(C)(C)C)c2)nc1CCOc1ccc(NS(=O)(=O)C(F)(F)F)cc1 [Compound 19] | 12.8% | 
17 |  | Cc1oc(-c2ccc(Cl)cc2)nc1CCOc1ccc(NS(=O)(=O)C(F)(F)F)cc1 [Compound 58] |  | inhibition in vivo at 3 mg/kg [1, 3]: 43.4%
18 |  | Cc1c(C)c2c(c(C)c1O)CCC(C)(COc1ccc(CC3SC(=O)NC3=O)cc1)O2 (stereo not shown) [Troglitazone, reference compound] |  | inhibition in vivo at 300 mg/kg ([1]; Mus musculus, po, 300 mg/kg, control drug): 34%
19 |  | Cc1oc(-c2cc(C(C)(C)C)c(OCC(=O)O)c(C(C)(C)C)c2)nc1CCOc1ccc(NS(=O)(=O)C(F)(F)F)cc1 [Compound 68] |  | inhibition in vivo at 3 mg/kg [1, 3]: 21.2%
